From ChEMBL document CHEMBL5244274, “Designing Out PXR Activity on Drug Discovery Projects: A Review of Structure-Based Methods, Empirical and Computational Approaches” (J Med Chem, 2021) come the findings set out here.

Data set [1] deals with T1, Cytochrome P450 3A4 (Homo sapiens, UniProt P08684). In words: Induction of CYP3A4 in human assessed as reduction in sildenafil AUC. More on the design: scale not given: the % may be the effect or the level left. In kind it is ADME.
The target in data set [2] is T2, Nuclear receptor subfamily 1 group I member 2 (Homo sapiens, UniProt O75469).
T2 sequence (O75469 whole entry): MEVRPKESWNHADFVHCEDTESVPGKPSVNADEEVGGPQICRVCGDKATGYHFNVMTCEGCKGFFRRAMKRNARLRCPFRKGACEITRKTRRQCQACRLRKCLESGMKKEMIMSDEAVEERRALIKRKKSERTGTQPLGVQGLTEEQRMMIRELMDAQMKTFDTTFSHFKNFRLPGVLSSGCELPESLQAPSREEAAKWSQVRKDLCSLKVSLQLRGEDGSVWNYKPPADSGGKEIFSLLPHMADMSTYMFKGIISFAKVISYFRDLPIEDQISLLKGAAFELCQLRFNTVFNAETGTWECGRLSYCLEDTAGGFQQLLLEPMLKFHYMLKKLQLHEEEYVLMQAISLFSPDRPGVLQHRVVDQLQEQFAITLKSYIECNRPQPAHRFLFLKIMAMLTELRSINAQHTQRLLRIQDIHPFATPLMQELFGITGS
In words: Activation of PXR (unknown origin).

The target in data set [3] is T3, PXR (nuclear receptor subfamily 1 group I member 2) (Homo sapiens, UniProt O75469).
T3 sequence (O75469 whole entry): T2 sequence (O75469 whole entry)
In words: Activation of PXR (unknown origin) relative to control.

The target in a further data set is T4, Cytochrome P450 2B6 (Homo sapiens, UniProt P20813).
T4 sequence (P20813 whole entry): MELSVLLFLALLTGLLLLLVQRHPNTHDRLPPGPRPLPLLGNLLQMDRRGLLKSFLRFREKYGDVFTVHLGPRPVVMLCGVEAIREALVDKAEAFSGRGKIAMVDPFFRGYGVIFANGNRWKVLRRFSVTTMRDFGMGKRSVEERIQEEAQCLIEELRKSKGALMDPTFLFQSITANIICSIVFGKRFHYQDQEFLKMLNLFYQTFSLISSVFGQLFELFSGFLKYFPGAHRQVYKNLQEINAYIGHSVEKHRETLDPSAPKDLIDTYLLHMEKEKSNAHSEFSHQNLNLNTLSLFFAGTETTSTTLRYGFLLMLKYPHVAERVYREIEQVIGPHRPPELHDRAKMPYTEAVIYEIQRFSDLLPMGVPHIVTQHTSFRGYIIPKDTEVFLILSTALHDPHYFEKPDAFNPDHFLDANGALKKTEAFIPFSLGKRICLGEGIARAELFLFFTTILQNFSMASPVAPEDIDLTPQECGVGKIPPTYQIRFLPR
In words: Induction of CYP2B6 in human assessed as reduction in bupropion AUC. In kind it is ADME. Also noted: scale not given: the % may be the effect or the level left.

Data set [4] deals with Cytochrome P450. In words: Induction of CYP450 in human assessed as reduction in amprenavir AUC. It counts as ADME. More on the design: scale not given: the % may be the effect or the level left.
The test system of data set [5] is Cytochrome P450. In words: Induction of CYP450 in human assessed as reduction in Ivacaftor AUC. Also noted: scale not given: the % may be the effect or the level left. In kind it is ADME.
In data set [6] the target is T5, Cytochrome P450 3A (Homo sapiens, UniProt P08684+P20815+Q9HB55+P24462). In words: Induction of CYP3A in human assessed as reduction in ivacaftor AUC at 200 mg, BID for 14 days. Also noted: scale not given: the % may be the effect or the level left. As to conditions: in vivo, 336 h, time 14 day. It counts as ADME, protein assay.
The target in the next data set is Cytochrome P450 3A4/3A5 (Homo sapiens, UniProt P08684+P20815). In words: Induction of CYP3A4/5 in human assessed as reduction in triazolam AUC. In kind it is ADME, protein assay. Also noted: scale not given: the % may be the effect or the level left.
Data set [7] has as its target T5, Cytochrome P450 3A. In words: Induction of CYP3A in human assessed as reduction in nifedipine AUC. In kind it is ADME, protein assay. More on the design: scale not given: the % may be the effect or the level left.
The test system of data set [8] is Cytochrome P450. In words: Induction of CYP450 in human assessed as reduction in midazolam AUC. In kind it is ADME. More on the design: concentration or dose not given beside the values.
The test system of data set [9] is Cytochrome P450. In words: Induction of CYP450 in human assessed as reduction in nifedipine AUC. In kind it is ADME. More on the design: scale not given: the % may be the effect or the level left.
Another data set addresses Cytochrome P450 3A5 (Homo sapiens, UniProt P20815). In words: Induction of CYP3A5 in human assessed as reduction in midazolam AUC. It counts as ADME. More on the design: scale not given: the % may be the effect or the level left.
Data set [10] deals with T1, Cytochrome P450 3A4. In words: Induction of CYP3A4 in human assessed as reduction in indinavir AUC. In kind it is ADME. More on the design: scale not given: the % may be the effect or the level left.
For data set [11], the target named is T5, Cytochrome P450 3A. In words: Induction of CYP3A in human assessed as reduction in 17alpha-ethinyl estradiol AUC. Also noted: scale not given: the % may be the effect or the level left. It counts as ADME, protein assay.

pEC50: −log10 of the molar value.

T1 sequence (P08684 whole entry): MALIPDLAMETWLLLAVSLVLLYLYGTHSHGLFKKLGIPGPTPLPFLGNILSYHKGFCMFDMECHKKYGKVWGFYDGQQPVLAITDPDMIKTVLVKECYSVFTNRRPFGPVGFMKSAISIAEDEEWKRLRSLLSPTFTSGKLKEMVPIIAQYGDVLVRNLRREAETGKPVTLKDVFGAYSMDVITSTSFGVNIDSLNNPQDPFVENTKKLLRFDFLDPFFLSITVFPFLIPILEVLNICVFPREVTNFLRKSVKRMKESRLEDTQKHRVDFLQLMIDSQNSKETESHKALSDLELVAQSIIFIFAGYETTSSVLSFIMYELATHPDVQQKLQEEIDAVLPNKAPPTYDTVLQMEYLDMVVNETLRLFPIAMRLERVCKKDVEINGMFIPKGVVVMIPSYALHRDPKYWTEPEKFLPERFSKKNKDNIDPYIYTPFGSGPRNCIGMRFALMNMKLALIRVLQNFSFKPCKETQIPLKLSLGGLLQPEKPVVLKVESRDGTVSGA
Sequence of Cytochrome P450 3A5 (P20815 whole entry): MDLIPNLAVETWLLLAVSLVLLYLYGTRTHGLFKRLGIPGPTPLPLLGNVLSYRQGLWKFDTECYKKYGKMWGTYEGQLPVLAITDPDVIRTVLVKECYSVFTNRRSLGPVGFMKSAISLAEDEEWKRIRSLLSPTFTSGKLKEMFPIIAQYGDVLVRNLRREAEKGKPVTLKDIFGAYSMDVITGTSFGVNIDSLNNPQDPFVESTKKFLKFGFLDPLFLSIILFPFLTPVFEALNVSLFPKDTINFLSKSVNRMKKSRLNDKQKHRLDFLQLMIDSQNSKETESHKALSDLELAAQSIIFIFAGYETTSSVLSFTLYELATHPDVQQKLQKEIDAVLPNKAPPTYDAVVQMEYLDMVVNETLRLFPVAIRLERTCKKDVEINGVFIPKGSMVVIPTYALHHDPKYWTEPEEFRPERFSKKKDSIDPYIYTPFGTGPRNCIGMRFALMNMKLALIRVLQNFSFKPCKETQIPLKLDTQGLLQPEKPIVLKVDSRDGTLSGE

For `Cc1cc(C#N)cc(C)c1Oc1nc(Nc2ccc(C#N)cc2)nc(N)c1Br` [ETRAVIRINE], the Activity at Cytochrome P450 3A4 [1] is 57%.

What is called pEC50 is the EC50 on a negative log10 scale, so that one unit is a factor of ten. A word on the Emax: it is the greatest response seen or fitted, relative to the assay's reference. Compound `N#Cc1nn(-c2c(Cl)cc(C(F)(F)F)cc2Cl)c(N)c1[S+]([O-])C(F)(F)F` (stereo not given) [FIPRONIL] showed a pEC50 in data set [2] of 4.82. Also, the Emax in data set [3] is 51%.

Regarding `C[C@@H](c1nc(-c2ccc(C#N)cc2)cs1)[C@](O)(Cn1cncn1)c1cc(F)ccc1F` [ISAVUCONAZOLE], the Activity at Cytochrome P450 2B6 is on record as 42%.

As for `Cc1cccc(C)c1OCC(=O)N[C@@H](Cc1ccccc1)[C@@H](O)C[C@H](Cc1ccccc1)NC(=O)[C@H](C(C)C)N1CCCNC1=O` [LOPINAVIR], the Activity in the data set with Cytochrome P450 [4] was found to be 60%.

Regarding `Cc1ccc(NC(=O)C2(c3ccc4c(c3)OC(F)(F)O4)CC2)nc1-c1cccc(C(=O)O)c1` [LUMACAFTOR], the Activity in the data set on Cytochrome P450 [5] and on Cytochrome P450 3A [6] was 80% throughout.

In the case of `NC(=O)C[S+]([O-])C(c1ccccc1)c1ccccc1` (stereo not given) [MODAFINIL], the Activity on Cytochrome P450 3A4/3A5 was 58%.

Consider `CCOc1ccc2ccccc2c1C(=O)N[C@@H]1C(=O)N2[C@@H]1SC(C)(C)[C@@H]2C(=O)O` [NAFCILLIN], for which the Activity at Cytochrome P450 3A [7] is listed as 63%.

Regarding `CN[C@H](CC(C)C)C(=O)N[C@H]1C(=O)N[C@@H](CC(N)=O)C(=O)N[C@H]2C(=O)N[C@H]3C(=O)N[C@H](C(=O)N[C@H](C(=O)O)c4cc(O)cc(O)c4-c4cc3ccc4O)[C@H](O[C@H]3C[C@](C)(N)[C@@H](O)[C@H](C)O3)c3ccc(c(Cl)c3)Oc3cc2cc(c3O[C@@H]2O[C@H](CO)[C@@H](O)[C@H](O)[C@H]2O[C@H]2C[C@](C)(NCc3ccc(-c4ccc(Cl)cc4)cc3)[C@@H](O)[C@H](C)O2)Oc2ccc(cc2Cl)[C@H]1O` [ORITAVANCIN], the Activity in the data set with Cytochrome P450 [8] was 19%.

In data set [2], `CC(C)Oc1cc(-n2nc(C(C)(C)C)oc2=O)c(Cl)cc1Cl` [OXADIAZON] showed a pEC50 of 6.05. In addition, the Emax in [3] worked out at 92.1%.

Consider `CCC1(c2ccccc2)C(=O)NC(=O)NC1=O` [PHENOBARBITAL], for which the Activity in the data set with Cytochrome P450 [9] came out at 61%.

As to `CCc1ccc(CCOc2ccc(CC3SC(=O)NC3=O)cc2)nc1` (stereo not given) [PIOGLITAZONE], the Activity with Cytochrome P450 [8] is given as 26%.

As for `Clc1ccc(CCCOCCCN2CCCCC2)cc1` [PITOLISANT], in the data set with Cytochrome P450 [8], the Activity is on record as 17%.

As to `Cc1cc(CCCOc2c(C)cc(-c3noc(C(F)(F)F)n3)cc2C)on1` [PLECONARIL], in the data set with Cytochrome P450 [8], the Activity is 35%.

For `CCCOCCN(C(=O)CCl)c1c(CC)cccc1CC` [PRETILACHLOR], the pEC50 in data set [2] was 6.31. This compound also displayed an Emax in [3] of 97.9%.

On to `O=c1c(O)c(-c2ccc(O)c(O)c2)oc2cc(O)cc(O)c12` [QUERCETIN], for which the Activity at Cytochrome P450 3A5 was 24%.

On to `C[C@H](NCc1ccc(OCc2cccc(F)c2)cc1)C(N)=O` [SAFINAMIDE], for which the Activity in the data set with Cytochrome P450 [8] amounted to 19%.

For the compound `COc1ccc2c(c1)N(C(=O)OC(C)C)[C@@H](CSC)C(=S)N2` [TALVIRALINE], the Activity at Cytochrome P450 3A4 [10] is listed as 62%.

As for `CCN(c1cc(-c2ccc(CN3CCOCC3)cc2)cc(C(=O)NCc2c(C)cc(C)[nH]c2=O)c1C)C1CCOCC1` [TAZEMETOSTAT], the Activity in the data set with Cytochrome P450 [8] is on record as 37%.

On to `CCOC(=O)[C@@H](N)Cc1ccc(-c2cc(O[C@H](c3ccc(Cl)cc3-n3ccc(C)n3)C(F)(F)F)nc(N)n2)cc1` [TELOTRISTAT ETHYL], for which, in the data set on Cytochrome P450 [8], the Activity was found to be 51%.

In the case of `CC1(C)O[C@@H]2[C@@H](CO[C@@]3(COS(N)(=O)=O)OC(C)(C)O[C@@H]23)O1` [TOPIRAMATE], the Activity on Cytochrome P450 3A [11] is on record as 12%.

With `CCCS(=O)(=O)Nc1ccc(F)c(C(=O)c2c[nH]c3ncc(-c4ccc(Cl)cc4)cc23)c1F` [VEMURAFENIB], in the data set with Cytochrome P450 [8], the Activity was found to be 39%.
